The text below walks through data of US12441736B2, “KIF18A inhibitors” (AMGEN INC., priority 2018, dated 2025).

The target of this assay is T1, Recombinant human KIF18A (1-467 His-tagged) protein (Homo sapiens, UniProt Q8NI77).
T1 construct: Recombinant human KIF18A (1-467 His-tagged) protein; His; made in house
T1 sequence (Q8NI77 1-467): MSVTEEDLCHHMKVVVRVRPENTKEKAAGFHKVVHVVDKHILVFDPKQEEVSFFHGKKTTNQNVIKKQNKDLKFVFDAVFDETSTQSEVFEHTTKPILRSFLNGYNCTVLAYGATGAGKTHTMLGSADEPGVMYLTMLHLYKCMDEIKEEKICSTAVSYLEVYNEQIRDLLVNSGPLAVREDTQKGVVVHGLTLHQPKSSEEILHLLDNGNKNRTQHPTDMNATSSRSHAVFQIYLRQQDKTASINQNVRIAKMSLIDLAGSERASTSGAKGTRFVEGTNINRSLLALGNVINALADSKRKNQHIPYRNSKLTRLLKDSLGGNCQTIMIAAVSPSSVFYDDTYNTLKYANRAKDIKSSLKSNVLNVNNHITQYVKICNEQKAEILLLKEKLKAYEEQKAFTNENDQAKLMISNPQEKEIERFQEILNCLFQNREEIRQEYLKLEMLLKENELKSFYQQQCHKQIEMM
T1 sequence (P02550 whole entry partner): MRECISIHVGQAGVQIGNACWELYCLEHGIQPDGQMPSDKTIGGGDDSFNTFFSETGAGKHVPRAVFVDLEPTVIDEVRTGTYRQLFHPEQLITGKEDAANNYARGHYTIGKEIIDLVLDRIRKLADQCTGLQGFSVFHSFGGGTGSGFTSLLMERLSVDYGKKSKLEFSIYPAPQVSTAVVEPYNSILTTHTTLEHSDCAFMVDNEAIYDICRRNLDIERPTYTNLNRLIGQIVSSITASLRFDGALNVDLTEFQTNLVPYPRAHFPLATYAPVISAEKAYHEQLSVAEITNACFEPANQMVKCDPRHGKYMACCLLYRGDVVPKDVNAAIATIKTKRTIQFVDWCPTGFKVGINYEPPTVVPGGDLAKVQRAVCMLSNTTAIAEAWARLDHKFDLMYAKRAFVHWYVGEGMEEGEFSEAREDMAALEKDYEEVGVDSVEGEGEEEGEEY
T1 sequence (P02554 whole entry partner): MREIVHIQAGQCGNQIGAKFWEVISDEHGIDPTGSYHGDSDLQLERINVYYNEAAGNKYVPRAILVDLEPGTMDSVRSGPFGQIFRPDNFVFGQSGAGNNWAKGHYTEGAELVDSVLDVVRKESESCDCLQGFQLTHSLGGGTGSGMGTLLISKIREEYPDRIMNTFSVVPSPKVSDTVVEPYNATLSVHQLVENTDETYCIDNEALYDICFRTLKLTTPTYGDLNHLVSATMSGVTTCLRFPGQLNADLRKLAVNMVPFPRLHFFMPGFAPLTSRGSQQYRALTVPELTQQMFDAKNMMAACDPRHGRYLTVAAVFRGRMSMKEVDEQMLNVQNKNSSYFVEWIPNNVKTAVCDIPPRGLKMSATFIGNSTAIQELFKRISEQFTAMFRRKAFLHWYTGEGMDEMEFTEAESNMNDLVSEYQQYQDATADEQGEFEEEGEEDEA
The assay is described as follows: KIF18A Enzyme Assay: microtubule-stimulated ATPase activity (ADP-Glo). Type of assay: biochemical. As to conditions: 30 nM KIF18A, 30 μg/mL pig microtubules, 75 μM ATP, ADP-Glo luminescence. From the text: KIF18A Enzyme Assay: Microtubule-stimulated ATPase activity assay is used to measure KIF18A enzyme activity after treatment with compound. Compounds were 2-fold serially diluted in DMSO (Sigma Inc) over 22-point concentration range. Recombinant human KIF18A (1-467 His-tagged) protein was expressed using a baculovirus system and purified by affinity chromatography by Amgen Inc. Concentrations of KIF18A protein, microtubules (MT), and ATP in the reaction were optimized for standardized homogenous enzyme assay using ADP-Glo™ Kinase/ATPase Assay Kit (Promega Inc). The assay measures ADP formed from the ATPase reaction. Prepare reaction buffer [(15 mM Tris, pH 7.5 (Teknova Inc), 10 mM MgCl2 (IT Baker Inc), 0.01% Pluronic F-68 (Life Technologies Inc), 1 μM Taxol (Cytoskeleton Inc), and 30 μg/mL pig microtubules (Cytoskeleton Inc)]. Add compound and KIF18A protein (30 nM) to prepared reaction buffer and incubated for 15 minutes at room temperature, next add ATP (at Kin, 75 μM) to the reaction mixture and incubated for an additional 15 minutes at room temperature. Mix 5 μl of ADP-Glo™ Reagent and 2.5 μl of the reaction mixture and incubate for 40 minutes at room temperature. Add 10 μl ADP-Glo™ Detection Reagent and incubate for 40 minutes at room temperature. Read luminescence using EnVision microplate reader with ultra-luminescence module (Perkin Elmer Inc). Concentration-response curve-fitting and IC50 determination was performed using Genedata Screener Software (Standard 15.0.1, Genedata Inc) with a four-parameter logistic regression fit model.
Table A provides data for compounds exemplified in the present application and priority document thereof, as representative compounds of the present invention, as follows: chemical name (as named by either ACD software or ChemDraw (Professional 15.0)) and biological data (IC50 in μM). Ex. # refers to Example No.
On the technique in general: ADP-Glo turns the ADP formed in a reaction into a luminescent signal.
A word on the IC50: it is the point on the concentration scale where inhibition reaches its midpoint. `CC(C)(CO)Nc1ccc(C(=O)Nc2cccc(N3CCC(F)(F)C3)n2)c(N2CCC3(CC2)CC3)n1` [Example 129, 2-(6-azaspiro[2.5]oct-6-yl)-N-(6-(3,3-difluoro-l-pyrrolidinyl)-2-pyridinyl)-6-((2-hydroxy-1,1-dimethylethyl)amino)-3-pyridinecarboxamide]: the IC50 came out at 83.4 nM. Under `CC(C)(CO)Nc1ccc(C(=O)Nc2cccc(N3CCOC(C)(C)C3)n2)c(N2CCC3(CC2)CC3)n1` [Example 130, 2-(6-azaspiro[2.5]oct-6-yl)-N-(6-(2,2-dimethyl-4-morpholinyl)-2-pyridinyl)-6-((2-hydroxy-1,1-dimethylethyl)amino)-3-pyridinecarboxamide] stands 172 nM. For `CC(C)(CO)Nc1ccc(C(=O)Nc2cccc(N3CCC(O)C3)n2)c(N2CCC3(CC2)CC3)n1` (stereo not drawn) [Example 131, 6-((1-hydroxy-2-methylpropan-2-yl)amino)-N-(6-(3-hydroxypyrrolidin-1-yl)pyridin-2-yl)-2-(6-azaspiro[2.5]octan-6-yl)nicotinamide] the value was 294 nM. For `C[C@H]1CN(c2cccc(NC(=O)c3ccc(NC(C)(C)CO)nc3N3CCC4(CC3)CC4)n2)CCO1` [Example 132, 2-(6-azaspiro[2.5]oct-6-yl)-6-((2-hydroxy-1,1-dimethylethyl)amino)-N-(6-((2S)-2-methyl-4-morpholinyl)-2-pyridinyl)-3-pyridinecarboxamide] the value was 82.1 nM.

Consider `CN1CCN(c2cccc(NC(=O)c3ccc(NC(C)(C)CO)nc3N3CCC4(CC3)CC4)n2)CC1` [Example 133, 2-(6-azaspiro[2.5]oct-6-yl)-6-((2-hydroxy-1,1-dimethylethyl)amino)-N-(6-(4-methyl-1-piperazinyl)-2-pyridinyl)-3-pyridinecarboxamide], for which the IC50 was 604 nM. Consider `CC(C)(CO)Nc1ccc(C(=O)Nc2cccc(N3CCCC3=O)n2)c(N2CCC3(CC2)CC3)n1` [Example 134, 2-(6-azaspiro[2.5]oct-6-yl)-6-((2-hydroxy-1,1-dimethylethyl)amino)-N-(6-(2-oxo-1-pyrrolidinyl)-2-pyridinyl)-3-pyridinecarboxamide], for which the IC50 was found to be 204 nM.

Regarding `CC1(C)CC(=O)N(c2cccc(NC(=O)c3ccc(NC(C)(C)CO)nc3N3CCC4(CC3)CC4)n2)C1` [Example 135, 2-(6-azaspiro[2.5]oct-6-yl)-N-(6-(4,4-dimethyl-2-oxo-1-pyrrolidinyl)-2-pyridinyl)-6-((2-hydroxy-1,1-dimethylethyl)amino)-3-pyridinecarboxamide], the IC50 was 110 nM. Under `CC(C)(CO)Nc1ccc(C(=O)Nc2cccc(N3C[C@H]4C[C@H]4C3)n2)c(N2CCC3(CC2)CC3)n1` [Example 136, N-(6-((1R,5S)-3-azabicyclo[3.1.0]hex-3-yl)-2-pyridinyl)-2-(6-azaspiro[2.5]oct-6-yl)-6-((2-hydroxy-1,1-dimethylethyl)amino)-3-pyridinecarboxamide] stands 71.9 nM; under `C[C@@H]1CN(c2cccc(NC(=O)c3ccc(NC(C)(C)CO)nc3N3CCC4(CC3)CC4)n2)CCO1` [Example 137, 2-(6-azaspiro[2.5]oct-6-yl)-6-((2-hydroxy-1,1-dimethylethyl)amino)-N-(6-((2R)-2-methyl-4-morpholinyl)-2-pyridinyl)-3-pyridinecarboxamide], 66.9 nM; under `CC(C)(CO)Nc1ccc(C(=O)Nc2cccc(C3=CCOCC3)n2)c(N2CCC3(CC2)CC3)n1` [Example 138, 2-(6-azaspiro[2.5]oct-6-yl)-N-(6-(3,6-dihydro-2H-pyran-4-yl)-2-pyridinyl)-6-((1-hydroxy-2-methyl-2-propanyl)amino)-3-pyridinecarboxamide], 82.9 nM. Take `C[C@H]1CCN(c2cccc(NC(=O)c3ccc(NC(C)(C)CO)nc3N3CCC4(CC3)CC4)n2)C1` [Example 139, 2-(6-azaspiro[2.5]oct-6-yl)-6-((1-hydroxy-2-methyl-2-propanyl)amino)-N-(6-((3S)-3-methyl-1-pyrrolidinyl)-2-pyridinyl)-3-pyridinecarboxamide]: the 50% inhibitory concentration (IC50) is 89.3 nM. For `CC(O)(c1ccc(C(=O)Nc2cccc(N3CCOCC3)n2)c(N2CCC3(CC2)CC3)n1)C(F)(F)F` (stereo not drawn) [Example 140, N-(6-morpholinopyridin-2-yl)-2-(6-azaspiro[2.5]octan-6-yl)-6-(1,1,1-trifluoro-2-hydroxypropan-2-yl)nicotinamide] the value was 71.2 nM.

Regarding `C[C@](O)(c1ccc(C(=O)Nc2cccc(N3CCOCC3)n2)c(N2CCC3(CC2)CC3)n1)C(F)(F)F` [Example 142, 2-(6-azaspiro[2.5]oct-6-yl)-N-(6-(4-morpholinyl)-2-pyridinyl)-6-((2S)-1,1,1-trifluoro-2-hydroxy-2-propanyl)-3-pyridinecarboxamide], the IC50 is 57.5 nM. Under `CC(C)(CO)Nc1ccc(C(=O)Nc2cccc(N3CC(F)C3)n2)c(N2CCC3(CC2)CC3)n1` [Example 144, 2-(6-azaspiro[2.5]oct-6-yl)-N-(6-(3-fluoro-1-azetidinyl)-2-pyridinyl)-6-((1-hydroxy-2-methyl-2-propanyl)amino)-3-pyridinecarboxamide] stands 76.5 nM.

`COC1CN(c2cccc(NC(=O)c3ccc(NC(C)(C)CO)nc3N3CCC4(CC3)CC4)n2)C1` [Example 145, 2-(6-azaspiro[2.5]oct-6-yl)-6-((1-hydroxy-2-methyl-2-propanyl)amino)-N-(6-(3-methoxy-1-azetidinyl)-2-pyridinyl)-3-pyridinecarboxamide]: the IC50 stood at 168 nM. Under `CC(C)(CO)Nc1ccc(C(=O)Nc2cccc(C3CCOCC3)n2)c(N2CCC3(CC2)CC3)n1` [Example 146, 2-(6-azaspiro[2.5]oct-6-yl)-6-((1-hydroxy-2-methyl-2-propanyl)amino)-N-(6-(tetrahydro-2H-pyran-4-yl)-2-pyridinyl)-3-pyridinecarboxamide] stands 247 nM; under `C[C@@H]1CN(c2cccc(NC(=O)c3ccc(NC(C)(CO)CO)nc3N3CCC4(CC3)CC4)n2)CCO1` [Example 147, (R)-6-((1,3-dihydroxy-2-methylpropan-2-yl)amino)-N-(6-(2-methylmorpholino)pyridin-2-yl)-2-(6-azaspiro[2.5]octan-6-yl)nicotinamide], 53.4 nM; under `CC(CO)(CO)Nc1ccc(C(=O)Nc2cccc(N3CCOCC3)n2)c(N2CCC3(CC2)CC3)n1` [Example 148, 2-(6-azaspiro[2.5]oct-6-yl)-6-((1,3-dihydroxy-2-methyl-2-propanyl)amino)-N-(6-(4-morpholinyl)-2-pyridinyl)-3-pyridinecarboxamide], 60.4 nM. Under `CC(CO)(CO)Nc1ccc(C(=O)Nc2cccc(N3CCC(F)(F)C3)n2)c(N2CCC3(CC2)CC3)n1` [Example 149, 2-(6-azaspiro[2.5]oct-6-yl)-N-(6-(3,3-difluoro-1-pyrrolidinyl)-2-pyridinyl)-6-((1,3-dihydroxy-2-methyl-2-propanyl)amino)-3-pyridinecarboxamide] stands 59.1 nM; under `CC(C)(CO)Nc1ccc(C(=O)Nc2cc(Cl)cc(N3CCOCC3)n2)c(N2CCC3(CC2)CC3)n1` [Example 152, 2-(6-azaspiro[2.5]oct-6-yl)-N-(4-chloro-6-(4-morpholinyl)-2-pyridinyl)-6-((1-hydroxy-2-methyl-2-propanyl)amino)-3-pyridinecarboxamide], 74.3 nM. For `Cc1cc(NC(=O)c2ccc(NC(C)(C)CO)nc2N2CCC3(CC2)CC3)nc(N2CCOCC2)c1` [Example 155, 2-(6-azaspiro[2.5]octan-6-yl)-6-((1-hydroxy-2-methyl-2-propanyl)amino)-N-(4-methyl-6-(4-morpholinyl)-2-pyridinyl)-3-pyridinecarboxamide] the value was 71 nM. For the compound `CC(C)(CO)Nc1ccc(C(=O)Nc2cc(C#N)cc(N3CCOCC3)n2)c(N2CCC3(CC2)CC3)n1` [Example 156, 2-(6-azaspiro[2.5]octan-6-yl)-N-(4-cyano-6-(4-morpholinyl)-2-pyridinyl)-6-((1-hydroxy-2-methyl-2-propanyl)amino)-3-pyridinecarboxamide], the IC50 was determined as 116 nM. For `Cc1cc(NC(=O)c2ccc(NC(C)(C)CO)nc2N2CCC3(CC2)CC3)nc(S(=O)(=O)NC(C)(C)C)c1` [Example 157, 2-(6-azaspiro[2.5]octan-6-yl)-6-((1-hydroxy-2-methyl-2-propanyl)amino)-N-(4-methyl-6-((2-methyl-2-propanyl)sulfamoyl)-2-pyridinyl)-3-pyridinecarboxamide] the value was 206 nM; for `COc1cc(NC(=O)c2ccc(NC(C)(C)CO)nc2N2CCC3(CC2)CC3)nc(N2CCOCC2)c1` [Example 158, 2-(6-azaspiro[2.5]octan-6-yl)-6-((1-hydroxy-2-methyl-2-propanyl)amino)-N-(4-methoxy-6-(4-morpholinyl)-2-pyridinyl)-3-pyridinecarboxamide], 402 nM.
